Calls of active or inactive are those of the source. The calls are words filed in the database; no cut-off is given here.
What was measured:
MCF7 [1] = assay: Antiproliferative activity against MCF7 cells after 72 hrs by MTT assay; type: functional, Homo sapiens
Estrogen receptor beta = Estrogen receptor beta (Homo sapiens, UniProt Q92731); assay: Displacement of fluoromone from human recombinant ERbeta by fluorescence polarization assay
Estrogen receptor = target: T1, Estrogen receptor (Homo sapiens, UniProt P03372); assay: Displacement of fluoromone from human recombinant ERalpha by fluorescence polarization assay
T1 sequence (P03372 whole entry): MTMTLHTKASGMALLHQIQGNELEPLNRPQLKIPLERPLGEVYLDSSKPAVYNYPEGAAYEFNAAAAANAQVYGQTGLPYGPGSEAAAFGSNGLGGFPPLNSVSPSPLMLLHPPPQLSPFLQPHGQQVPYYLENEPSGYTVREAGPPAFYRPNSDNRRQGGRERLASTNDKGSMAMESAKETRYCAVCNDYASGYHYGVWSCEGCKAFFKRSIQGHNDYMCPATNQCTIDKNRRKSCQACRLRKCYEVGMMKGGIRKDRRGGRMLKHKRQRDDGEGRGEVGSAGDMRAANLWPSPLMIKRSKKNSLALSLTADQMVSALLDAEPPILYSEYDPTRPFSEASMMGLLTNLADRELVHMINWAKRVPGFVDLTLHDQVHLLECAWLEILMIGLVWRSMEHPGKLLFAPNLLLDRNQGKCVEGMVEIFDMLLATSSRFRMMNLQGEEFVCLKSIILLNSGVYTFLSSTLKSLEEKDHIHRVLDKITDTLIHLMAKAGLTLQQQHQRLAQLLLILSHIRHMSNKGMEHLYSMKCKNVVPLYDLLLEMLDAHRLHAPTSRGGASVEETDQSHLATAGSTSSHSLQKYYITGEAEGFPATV

Homo sapiens = organism: Homo sapiens; assay: Selectivity for ERalpha over ERbeta
MCF7 [2] = assay: Cytotoxicity against MCF7 cells after 72 hrs by LDH assay; type: functional, cell-based; details: Homo sapiens

Sequence of Estrogen receptor beta (Q92731 whole entry): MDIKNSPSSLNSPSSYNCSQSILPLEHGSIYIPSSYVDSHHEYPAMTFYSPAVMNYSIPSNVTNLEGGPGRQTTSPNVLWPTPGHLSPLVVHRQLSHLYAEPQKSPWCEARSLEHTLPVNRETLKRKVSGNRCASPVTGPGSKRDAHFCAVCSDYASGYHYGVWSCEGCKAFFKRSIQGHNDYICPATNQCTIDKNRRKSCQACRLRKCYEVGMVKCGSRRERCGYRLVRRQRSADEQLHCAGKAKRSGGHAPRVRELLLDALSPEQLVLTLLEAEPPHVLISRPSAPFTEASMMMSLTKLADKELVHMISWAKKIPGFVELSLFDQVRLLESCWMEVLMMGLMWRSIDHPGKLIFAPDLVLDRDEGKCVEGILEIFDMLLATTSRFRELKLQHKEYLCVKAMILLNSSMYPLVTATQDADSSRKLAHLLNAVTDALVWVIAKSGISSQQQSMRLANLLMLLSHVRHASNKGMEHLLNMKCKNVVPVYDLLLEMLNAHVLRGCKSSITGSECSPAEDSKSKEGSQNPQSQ

Row | Structure (SMILES) | Activity (MCF7 [1]) [µM] | IC50 (Estrogen receptor beta) [nM] | IC50 (Estrogen receptor) [nM] | Ratio IC50 (Homo sapiens) | Activity (MCF7 [2])
1 | CC/C(=C(\c1ccccc1)c1ccc(OCCN(C)C)cc1)c1ccccc1 [TAMOXIFEN] | 4.6 | – | – | – | –
2 | COC(=O)C1=C(N)Oc2cc(O)ccc2C1c1ccc(OCc2ccccc2F)cc1 (stereo unspecified) | 11.4 | 780 | 53 | 13.7 | Active
3 | COc1cc(C2Nc3ccccc3C(=O)N2Cc2ccccc2)ccc1O (stereo unspecified) | 15 | 6200 | 1100 | 4.4 | Active
4 | COC(=O)C1=C(N)Oc2cc(O)ccc2C1c1ccc(OCc2ccc(C)cc2)cc1 (stereo unspecified) | 7 | 915 | 56 | 17 | Active
